# Tested on: 362531-283-R-J2-PDC complex spheroid viability
# Experiment: Anticancer human tumor 362531-283-R-J2-PDC patient-derived colon adenocarcinoma cell line growth inhibition [RAS]
# Conditions: for IC50: curve of first compound; for viability, T/C: stronger effect = lower value
# Method in brief: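 Tumour cells grown as complex spheroids with HUVEC endothelial cells and mesenchymal stem cells, treated with RAS pathway inhibitor combinations. Each agent spans half-log steps from near clinical Cmax, or 10 microM where Cmax is unknown.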
# [1] = second compound 0.0316 µM, first compound 0.0316 µM
# [2] = second compound 0.0316 µM, first compound 0.1 µM
# [3] = second compound 0.0316 µM, first compound 0.316 µM
# [4] = second compound 0.0316 µM, first compound 1 µM
# [5] = second compound 0.0316 µM, first compound 3.16 µM
# [6] = second compound 0.0316 µM, first compound 10 µM
# [7] = second compound 0.1 µM, first compound 0.0316 µM
# [8] = second compound 0.1 µM, first compound 0.1 µM
# [9] = second compound 0.1 µM, first compound 0.316 µM
# [10] = second compound 0.1 µM, first compound 1 µM
# [11] = second compound 0.1 µM, first compound 3.16 µM
# [12] = second compound 0.1 µM, first compound 10 µM
# [13] = second compound 0.316 µM, first compound 0.0316 µM
# [14] = second compound 0.316 µM, first compound 0.1 µM
# [15] = second compound 0.316 µM, first compound 0.316 µM
# [16] = second compound 0.316 µM, first compound 1 µM
# [17] = second compound 0.316 µM, first compound 3.16 µM
# [18] = second compound 0.316 µM, first compound 10 µM
# [19] = second compound 1 µM, first compound 0.0316 µM
# [20] = second compound 1 µM, first compound 0.1 µM
# [21] = second compound 1 µM, first compound 0.316 µM
# [22] = second compound 1 µM, first compound 1 µM
# [23] = second compound 1 µM, first compound 3.16 µM
# [24] = second compound 1 µM, first compound 10 µM
# [25] = second compound 3.16 µM, first compound 0.0316 µM
# [26] = second compound 3.16 µM, first compound 0.1 µM
# [27] = second compound 3.16 µM, first compound 0.316 µM
# [28] = second compound 3.16 µM, first compound 1 µM
# [29] = second compound 3.16 µM, first compound 3.16 µM
# [30] = second compound 3.16 µM, first compound 10 µM
# [31] = second compound 10 µM, first compound 0.0316 µM
# [32] = second compound 10 µM, first compound 0.1 µM
# [33] = second compound 10 µM, first compound 0.316 µM
# [34] = second compound 10 µM, first compound 1 µM
# [35] = second compound 10 µM, first compound 3.16 µM
# [36] = second compound 10 µM, first compound 10 µM
# 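Further: spheroids exposed to the agents for 7 days before readout.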
# 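Wherever viability, T/C is given: luminescence viability as percent of DMSO vehicle control wells.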
structure (smiles),measurement,setting,value
CC(Nc1ccc2c(c1)OCCn1cc(N3C(=O)OCC3C(F)F)nc1-2)C(N)=O (stereo unspecified) + CCn1c(-c2cc(N3CCN(C)CC3)cnc2C(C)OC)c2c3cc(ccc31)-c1csc(n1)CC(NC(=O)C1CC1C)C(=O)N1CCCC(N1)C(=O)OCC(C)(C)C2,IC50,second compound 0.000949 µM,1290 nM
same,IC50,second compound 0.003 µM,1610 nM
same,IC50,second compound 0.00949 µM,952 nM
same,IC50,second compound 0.03 µM,849 nM
same,IC50,second compound 0.0949 µM,431 nM
same,IC50,second compound 0.3 µM,< 31.6 nM
same,"viability, T/C","second compound 0.000949 µM, first compound 0.0316 µM",98.7%
same,"viability, T/C","second compound 0.000949 µM, first compound 0.1 µM",107%
same,"viability, T/C","second compound 0.000949 µM, first compound 0.316 µM",86.6%
same,"viability, T/C","second compound 0.000949 µM, first compound 1 µM",58%
same,"viability, T/C","second compound 0.000949 µM, first compound 3.16 µM",26.4%
same,"viability, T/C","second compound 0.000949 µM, first compound 10 µM",27.9%
same,"viability, T/C","second compound 0.003 µM, first compound 0.0316 µM",103%
same,"viability, T/C","second compound 0.003 µM, first compound 0.1 µM",98.8%
same,"viability, T/C","second compound 0.003 µM, first compound 0.316 µM",93%
same,"viability, T/C","second compound 0.003 µM, first compound 1 µM",59.5%
same,"viability, T/C","second compound 0.003 µM, first compound 3.16 µM",36.7%
same,"viability, T/C","second compound 0.003 µM, first compound 10 µM",27.5%
same,"viability, T/C","second compound 0.00949 µM, first compound 0.0316 µM",96.8%
same,"viability, T/C","second compound 0.00949 µM, first compound 0.1 µM",105%
same,"viability, T/C","second compound 0.00949 µM, first compound 0.316 µM",64.9%
same,"viability, T/C","second compound 0.00949 µM, first compound 1 µM",56.2%
same,"viability, T/C","second compound 0.00949 µM, first compound 3.16 µM",32.4%
same,"viability, T/C","second compound 0.00949 µM, first compound 10 µM",32.3%
same,"viability, T/C","second compound 0.03 µM, first compound 0.0316 µM",97.2%
same,"viability, T/C","second compound 0.03 µM, first compound 0.1 µM",89.6%
same,"viability, T/C","second compound 0.03 µM, first compound 0.316 µM",70.7%
same,"viability, T/C","second compound 0.03 µM, first compound 1 µM",45.8%
same,"viability, T/C","second compound 0.03 µM, first compound 3.16 µM",38.7%
same,"viability, T/C","second compound 0.03 µM, first compound 10 µM",34.9%
same,"viability, T/C","second compound 0.0949 µM, first compound 0.0316 µM",88.6%
same,"viability, T/C","second compound 0.0949 µM, first compound 0.1 µM",73%
same,"viability, T/C","second compound 0.0949 µM, first compound 0.316 µM",51.9%
same,"viability, T/C","second compound 0.0949 µM, first compound 1 µM",41.7%
same,"viability, T/C","second compound 0.0949 µM, first compound 3.16 µM",32.5%
same,"viability, T/C","second compound 0.0949 µM, first compound 10 µM",29.4%
same,"viability, T/C","second compound 0.3 µM, first compound 0.0316 µM",32.6%
same,"viability, T/C","second compound 0.3 µM, first compound 0.1 µM",28.3%
same,"viability, T/C","second compound 0.3 µM, first compound 0.316 µM",11.2%
same,"viability, T/C","second compound 0.3 µM, first compound 1 µM",3.11%
same,"viability, T/C","second compound 0.3 µM, first compound 3.16 µM",3.38%
same,"viability, T/C","second compound 0.3 µM, first compound 10 µM",3.53%
CC(Nc1ccc2c(c1)OCCn1cc(N3C(=O)OCC3C(F)F)nc1-2)C(N)=O (stereo unspecified) + C#Cc1c(F)ccc2cc(O)cc(-c3ncc4c(N5CC6CCC(C5)N6)nc(OCC56CCCN5CC(F)C6)nc4c3F)c12,IC50,second compound 0.0316 µM,1290 nM
same,IC50,second compound 0.1 µM,963 nM
same,IC50,second compound 0.316 µM,847 nM
same,IC50,second compound 1 µM,421 nM
same,IC50,second compound 3.16 µM,119 nM
same,IC50,second compound 10 µM,42.9 nM
same,"viability, T/C",[1],90.7%
same,"viability, T/C",[2],88.4%
same,"viability, T/C",[3],79%
same,"viability, T/C",[4],55%
same,"viability, T/C",[5],33.7%
same,"viability, T/C",[6],31%
same,"viability, T/C",[7],95%
same,"viability, T/C",[8],77%
same,"viability, T/C",[9],69.9%
same,"viability, T/C",[10],48.6%
same,"viability, T/C",[11],34.5%
same,"viability, T/C",[12],28.8%
same,"viability, T/C",[13],103%
same,"viability, T/C",[14],81.5%
same,"viability, T/C",[15],63.7%
same,"viability, T/C",[16],50.9%
same,"viability, T/C",[17],29.7%
same,"viability, T/C",[18],13.8%
same,"viability, T/C",[19],80.5%
same,"viability, T/C",[20],59.4%
same,"viability, T/C",[21],62.9%
same,"viability, T/C",[22],34.2%
same,"viability, T/C",[23],25.6%
same,"viability, T/C",[24],18%
same,"viability, T/C",[25],62%
same,"viability, T/C",[26],51.9%
same,"viability, T/C",[27],31.4%
same,"viability, T/C",[28],7.66%
same,"viability, T/C",[29],7.58%
same,"viability, T/C",[30],4.5%
same,"viability, T/C",[31],56.1%
same,"viability, T/C",[32],33%
same,"viability, T/C",[33],6.59%
same,"viability, T/C",[34],4.96%
same,"viability, T/C",[35],3.74%
same,"viability, T/C",[36],2.42%
NC1c2ccccc2OC12CCN(c1cnc3c(N4CCCc5ncccc54)n[nH]c3n1)CC2 (stereo unspecified) + C#Cc1c(F)ccc2cc(O)cc(-c3ncc4c(N5CC6CCC(C5)N6)nc(OCC56CCCN5CC(F)C6)nc4c3F)c12,IC50,second compound 0.0316 µM,354 nM
same,IC50,second compound 0.1 µM,175 nM
same,IC50,second compound 0.316 µM,75.2 nM
same,IC50,second compound 1 µM,35.8 nM
same,IC50,second compound 3.16 µM,< 31.6 nM
same,IC50,second compound 10 µM,< 31.6 nM
same,"viability, T/C",[1],98.7%
same,"viability, T/C",[2],73.2%
same,"viability, T/C",[3],60.9%
same,"viability, T/C",[4],10.6%
same,"viability, T/C",[5],5.23%
same,"viability, T/C",[6],1.84%
same,"viability, T/C",[7],79.7%
same,"viability, T/C",[8],78.1%
same,"viability, T/C",[9],20.7%
same,"viability, T/C",[10],7.72%
same,"viability, T/C",[11],6.1%
same,"viability, T/C",[12],1.33%
same,"viability, T/C",[13],84.2%
same,"viability, T/C",[14],38.8%
same,"viability, T/C",[15],9.03%
same,"viability, T/C",[16],6.67%
same,"viability, T/C",[17],5.3%
same,"viability, T/C",[18],1.76%
same,"viability, T/C",[19],54.7%
same,"viability, T/C",[20],12.8%
same,"viability, T/C",[21],10.8%
same,"viability, T/C",[22],6.95%
same,"viability, T/C",[23],5.9%
same,"viability, T/C",[24],1.83%
same,"viability, T/C",[25],25.5%
same,"viability, T/C",[26],9.78%
same,"viability, T/C",[27],9.64%
same,"viability, T/C",[28],6.45%
same,"viability, T/C",[29],5.47%
same,"viability, T/C",[30],1.34%
same,"viability, T/C",[31],11.1%
same,"viability, T/C",[32],6.83%
same,"viability, T/C",[33],5.98%
same,"viability, T/C",[34],5.62%
same,"viability, T/C",[35],2.9%
same,"viability, T/C",[36],1.51%

# Source: PubChem BioAssay AID2060909 (Molecular Pharmacology Branch, DTP, NCI, 2025)
